Assay results published in patent US20230390296A1, “NOVEL TREATMENT AND PREVENTION OF SARCOPENIA-RELATED DISEASES” (KEIO UNIVERSITY, priority 2020, published 2023).
“And” between values parts separate entries of the source, which are not always exact repeats. Equal entries are not always repeated. “Also recorded” adds a separate entry of the source.

What was measured:
[1] = test system: muscle of mice (C57BL/6J) with exercise; assay: Gene analysis (RNA-seq, GSEA) of muscle of administered mice with exercise; assay type: in vivo, mouse
Description: Gene analysis (RNA-seq) in OK-1 administered mice (C57BL/6J) with exercise was performed by the same method as Example 2.
The category of genes with differential expression identified in Example 5 was analyzed by the same method (GSEA) as Example 3 (FIG. 6).

[2] = test system: muscle of mice without exercise; assay: Gene analysis (RNA-seq, GO, upstream transcription factor, GSEA) of muscle of administered mice without exercise; assay type: in vivo, mouse
Description: Gene analysis (RNA-seq) was performed in old mice administered with OK-1 with improved muscle strength and muscle mass. The method and reagent used were the following.
The quality of all reads was checked by using FastQC v0.11.8, and low quality reads were removed using Trimomatic (ver 0.38).
LEADING: 20 (remove bases with a quality score of less than 20 from the leading reads), TRAILING: 20, SLIDINGWINDOW: 4:15 (window size 4, average quality 15), MINLEN: 36 (remove reads that are less than […])
Each read obtained after filtering was mapped to reference genome GRCm38 by using STAR (ver 2.7.0.f). Mapping was performed using the default values of STAR.
1) Index preparation • Run Mode; genomeGenerate • Reference; GRCm38 • Annotation file; genecode version M24 • sjdbOverhang; 150 alignment was performed using the index prepared above. In addition, this was performed with default values without options.
To count the number of genes, featuecount (ver 1.6.4) was used to count the number for each gene name defined by a symbol name, where the number was counted in gene symbol units defined in genecode version M24.
The counted numbers were filtered for genes with a count data of 0 in all samples, subjected to TMM normalization using edgeR (ver 3.22.3), and corrected among samples. Initially, for understanding of the overall picture of the data, primary component analysis and clustering analysis were performed using count data after removal of low expression genes.
Differential expression of a pattern designated based on the obtained expression values was compared.
Differentially expressed genes were tested using edgeR. As the definition of differentially expressed gene, uncorrected p. value<0.05 was used as a cut-off value, and Fold Change of “pattern not used” and “2 or more or 0.5 or less” were used as the cut-off for calculation.
Gene enrichment analysis was performed on the resulting differentially expressed gene using gprofiler2 (version 0.1.6).
Expression values after normalization of resulting differentially expressed genes were extracted. Visual heatmap was drawn to study the change. […] This analysis was performed using RcisTarget (ver 1.8.0). RcisTarget performed analysis using a mouse database for 10 kbp upstream of TSS stored in RcisTarget. Details of analysis are the following (cited from https://scenic.aertslab.org/tutorials/RcisTarget.html).
The first step to estimate the over-representation of each motif on the gene-set is to calculate the Area Under the Curve (AUC) for each pair of motif-geneSet. This is calculated based on the recovery curve of the gene-set on the motif ranking (genes ranked decreasingly by the score of motif in its proximity, as provided in the motifRanking database).
The selection of significant motifs is done based on the Normalized Enrichment Score (NES). The NES is calculated—for each motif—based on the AUC distribution of all the motifs for the gene-set [(x-mean)/sd]. Those motifs that pass the given threshold (3.0 by default) are considered significant. […] In this way, the third step of the workflow is to identify which genes (of the gene-set) are highly ranked for each of the significant motifs. These genes were identified by a faster implementation based on an approximate distribution using the average at each rank.
The category of genes with a change in expression identified in Example 2 was analyzed with a software (GSEA), which is different from that in Example 2 (GO) (FIG. 3). Analysis with GSEA was performed as follows. GSEA performed categorization by the regulating gene. This is different from GO, which performs categorization by function.
Data was created on the relationship of activattion+unknown and repression+unknown for regulatory genes and transcription factors installed in TRRUST ver2. Gene enrichment analysis was performed using GSEA (https://www.gsea-msigdb.org/gsea/index.jsp) based on respective gene sets. local gsea-3.0 that starts up within java was used for GSEA.

[3] = test system: muscle of mice with/without exercise; assay: Collation of top 100 differentially expressed muscle genes with NIH MedlinePlus (related diseases); design: species or system mouse
From the text: Diseases associated with top 100 genes observed to have differential expression in mice with/without exercise were found by collation with NIH MedlinePlus (FIG. 8).

[4] = test system: old mice (C57BL/6J); assay: Treadmill test of muscle strength (endurance) in young and old mice; assay type: in vivo, mouse
From the text: Decrease in endurance in old mice In order to confirm that a decrease in muscle strength is observed in mouse models (C57BL/6J) (purchased from Oriental Yeast), the muscle strength (endurance) in 15-week old young mice and 79-week-old old mice was investigated in a treadmill test in accordance with the following (FIG. 1A). Prior to recording the performance, mice were trained for 3 days to acclimate the mice to the equipment. Electric stimulation grid was adjusted to 1 mA, and the gradient was set to 15 degrees. On the first day of training, mice were induced to walk for 10 minutes at a rate of 10 m/minute, allowed to rest for 10 minutes, and then induced to walk for 10 minutes at a rate of 10 m/minute on a treadmill. On day 2 and day 3, the first two steps were the under the same conditions as day 1, and then the mice were induced to start walking at 10 m/minute. The speed was increased by 1 m/minute until reaching the maximum speed of 20 m/minute. On day 4, the maximum exercise endurance was measured. Six mice were placed on a treadmill, which was started at a belt speed of 5 m/minute for 5 minutes to let the mice warm up. The speed was increased 1 m/minute until reaching the maximum speed of 20 m/minute. After making the mice run for 5 minutes, the speed was increased from 20 m/minute to 21 m/minute for 10 minutes. The mice were then forced to run at 22 m/minute until stalling on the electric stimulation grid for 10 seconds. The distance traveled until stalling for 10 seconds was measured.
OK-1 manufactured in Manufacturing Example 1 was intraperitoneally administered to young and old mice twice a week over three months. The dosage was 20 mg/kg/day.
74-week old mice (C57B16/J) were purchased from Oriental Yeast. […] Muscle strength (endurance) and grip strength of mice administered with C-82 were then measured through a treadmill test and smart grip strength meter for rats and mice (Muromachi Kikai Co., Ltd.), respectively. […]

[5] = test system: mouse bones; assay: Bone density (DEXA or ultrasound); assay type: in vivo; settings: administered versus non-administered mice
Description: This Example tested bone density for mice administered with OK-1 and mice without administration of OK-1 in order to investigate the effect of OK-1 on mouse bones. Bone density was measured using DEXA or ultrasound.
This Example tested bone density for mice administered with C-82 and mice without administration of C-82 in order to investigate the effect of C-82 on mouse bones. Bone density was measured using DEXA or ultrasound.

[6] = C-82 administration, same method as Example 2

Structure (SMILES) | change in gene expression in muscles [1, 6] | change in gene expression in muscles [2, 6] | diseases associated with the top 100 differentially expressed genes ([3]; C-82 administration, mice with/without exercise) | muscle strength (endurance) through a treadmill test ([4]; 74-week old mice, 7 mg/kg and 20 mg/kg intraperitoneal twice a week for 6 weeks, versus no administration) | bone density [5] | gene group associated with OK-1 by GSEA: genes regulating muscle genes with exercise ([1]; GSEA) | genes decreased (downregulated expression) significantly in muscle ([1]; OK-1 administration, p<0.05) | genes increased (upregulated expression) significantly in muscle ([1]; OK-1 administration, p<0.05) | gene group associated with OK-1: genes associated with muscle control with exercise ([1]; upstream transcription factors) | gene group associated with OK-1: genes associated with regulation of muscle without exercise [2] | upstream factors from upstream transcription factor analysis [2] | gene group associated with OK-1 by GSEA: involved in increase in muscle ([2]; GSEA, TRRUST ver2) | genes decreased (downregulated expression) significantly in muscle ([2]; OK-1 administration, p<0.05) | genes increased (upregulated expression) significantly in muscle ([2]; OK-1 administration, p<0.05) | gene group associated with OK-1: genes with change in muscle control with/without exercise, disease-associated ([3]; top 100 genes) | muscle strength (endurance) through a treadmill test ([4]; intraperitoneal, twice a week over three months, 20 mg/kg/day, young (15-week) and old (79-week) mice)
C[C@H]1[C@H]2N(C(=O)CN(C)N2C(=O)NCc2ccccc2)[C@@H](Cc2ccc(O)cc2)C(=O)N1Cc1cccc2cccnc12 [C-82, (6S,9S)—N-benzyl-6-(4-hydroxybenzyl)-2,9-dimethyl-4,7-dioxo-8-(quinolin-8-ylmethyl)hexahydro-2H-pyrazino[2,1-c][1,2,4]triazine-1(6H)-carboxamide] | achieves the same result as OK-1 | achieves the same result as OK-1 | achieves the same result as OK-1 | significant increase in muscle strength (endurance); also recorded: increased significantly | bone density is improved | – | – | – | – | – | – | – | – | – | – | –
C[C@H]1[C@H]2N(C(=O)CN(C)N2C(=O)NCc2ccccc2)[C@@H](Cc2ccc(OP(=O)(O)O)cc2)C(=O)N1Cc1cccc2cccnc12 [OK-1] | – | – | – | – | bone density is improved | ETS2, ETS1, EP300, RUNX2, SMAD3, SMAD4, E2F1, NOTCH1, TRP53, PAX6, SMAD1, SP1, SPI1, and NFKB1 | 631 genes | 145 genes | Jun, Ets1, Sp1, Ep300, Usf2, Fosl1, Nfkb1, Smad3, Srf, Junb, Runx2, Ets2, Etv4, Tgfb1, and Tgfb1i1 | Ppara, Pou2f2, Foxo1, Pparg, Pou2f1, Trp63, Sp1, Tcf3, Zeb1, Srebf1, Sp3, Ebf1, Mycn, and Pbx1 | Hnf4a and Gata4, Nrf1, and Hnf1a | IRF1, NFE2L2, PPARG, FOXO1, CEBPB, PPARA, CEBPA, STAT1, STAT5A, MYOD1, REL, NFKB1, SPI1, IRF8, SP1, and FOXM1 | 445 genes and 595 genes | 206 genes and 181 genes | Dsp, Krt17, Comp, Krt86, Krt81, Krt83, Krt14, Abca12, Tchh, Krt5, Dsg4, Lpl, Myh6, Tfap2a, Col1a1, Lepr, Fn1, Col1a2, Col6a1, Col3a1, Mmp2, Acta2, F13a1, Col6a2, and Cx3cr1 | increase in muscle strength due to OK-1 administration, which is specific to old mice
